Source: patent publication US10765114B2, “4-amino-6-(pyridyl and 2-substitutedphenyl)-picolinates and 6-amino-2-(pyridyl and 2-substitutedphenyl)-pyrimidine-4-carboxylates and their use as herbicides” (Dow AgroSciences LLC, priority 2013, dated 2020)
Where two headings read alike, the source gives them in different places.

Columns and labels:
[1] = tested on: Key Grass and Sedge Weeds as well as Grass Crops; assay: Post-Emergent Test II (Table 6); format: in vivo; conditions: post-emergence, 336 h, 14 days after application; for pest or weed control at 70 g/ha: 70 g ai/ha; for pest or weed control at 140 g/ha: 140 g ai/ha
Method in brief: (§1)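 Visual injury ratings (0 = no injury, 100 = complete kill) taken 14 days after treatment, relative to untreated controls. Compounds, in an acetone/DMSO aqueous carrier with crop oil and surfactant, were applied by track sprayer at 187 L/ha, in a twofold dilution series from the top rate, to plants at the first to second true-leaf stage.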

[2] = tested on: Key Broadleaf Weed and Crop Species; assay: Post-Emergent Test II (Table 5); format: in vivo; conditions: post-emergence, 336 h; for pest or weed control at 70 g/ha: application rate 70 (kg ai/ha; footnote: g ai/ha); for pest or weed control at 140 g/ha: application rate 140 (kg ai/ha; footnote: g ai/ha)
Method in brief: as §1

[3] = CYPSS, read-out: Visual Growth Reduction (%) 14 Days After Application CYPSS
[4] = DIGSA: crabgrass (Digitaria sanguinalis), read-out: Visual Growth Reduction (%) 14 Days After Application DIGSA
[5] = ECHSS, read-out: Visual Growth Reduction (%) 14 Days After Application ECHSS
[6] = ORYSS (crop), read-out: Visual Growth Reduction (%) 14 Days After Application ORYSS
[7] = SETFA: giant foxtail (Setaria faberi), read-out: Visual Growth Reduction (%) 14 Days After Application SETFA
[8] = SORVU: grain sorghum (Sorghum vulgare), read-out: Visual Growth Reduction (%) 14 Days After Application SORVU
[9] = TRZSS (crop), read-out: Visual Growth Reduction (%) 14 Days After Application TRZSS
[10] = ZEAMX: maize, corn (Zea mays), read-out: Visual Growth Reduction (%) 14 Days After Application ZEAMX
[11] = Abutilon theophrasti, ABUTH: velvetleaf (Abutilon theophrasti), read-out: Visual Growth Reduction (%) 14 Days After Application ABUTH
[12] = Amaranthus retroflexus, AMARE: redroot pigweed (Amaranthus retroflexus), read-out: Visual Growth Reduction (%) 14 Days After Application AMARE
[13] = Brassica napus, BRSSS: oilseed rape, canola (Brassica napus), read-out: Visual Growth Reduction (%) 14 Days After Application BRSSS
[14] = Chenopodium album, CHEAL: lambsquarters (Chenopodium album), read-out: Visual Growth Reduction (%) 14 Days After Application CHEAL
[15] = Euphorbia heterophylla, EPHHL: wild poinsettia (Euphorbia heterophylla), read-out: Visual Growth Reduction (%) 14 Days After Application EPHHL
[16] = Helianthus annuus, HELAN: sunflower (Helianthus annuus), read-out: Visual Growth Reduction (%) 14 Days After Application HELAN
[17] = Viola tricolor, VIOTR: wild pansy (Viola tricolor), read-out: Visual Growth Reduction (%) 14 Days After Application VIOTR

SMILES | pest or weed control at 70 g/ha [1, 3] [%] | pest or weed control at 140 g/ha [1, 3] [%] | pest or weed control at 70 g/ha [1, 4] [%] | pest or weed control at 140 g/ha [1, 4] [%] | pest or weed control at 70 g/ha [1, 5] [%] | pest or weed control at 140 g/ha [1, 5] [%] | pest or weed control at 70 g/ha [1, 6] [%] | pest or weed control at 140 g/ha [1, 6] [%] | pest or weed control at 70 g/ha [1, 7] [%] | pest or weed control at 140 g/ha [1, 7] [%] | pest or weed control at 70 g/ha [1, 8] [%] | pest or weed control at 140 g/ha [1, 8] [%] | pest or weed control at 70 g/ha [1, 9] [%] | pest or weed control at 140 g/ha [1, 9] [%] | pest or weed control at 70 g/ha [1, 10] [%] | pest or weed control at 140 g/ha [1, 10] [%] | pest or weed control at 70 g/ha [2, 11] [%] | pest or weed control at 140 g/ha [2, 11] [%] | pest or weed control at 70 g/ha [2, 12] [%] | pest or weed control at 140 g/ha [2, 12] [%] | further results
COC(=O)c1nc(-c2ccc(Cl)nc2F)c(F)c(N)c1Cl [Compound 45] | 95 to 100 | 95 to 100 | 60 to 74 | 75 to 84 | 75 to 84 | 85 to 94 | 0 to 29 | 0 to 29 | 45 to 59 | 45 to 59 | 30 to 44 | 45 to 59 | 0 to 29 | 0 to 29 | 0 to 29 | 0 to 29 | 85 to 94 | 95 to 100 | 95 to 100 | 95 to 100 | pest or weed control at 70 g/ha [2, 13]: 0 to 29%; pest or weed control at 140 g/ha [2, 13]: 30 to 44%; pest or weed control at 70 g/ha [2, 14]: 95 to 100%; pest or weed control at 140 g/ha [2, 14]: 95 to 100%; pest or weed control at 70 g/ha [2, 15]: 30 to 44%; pest or weed control at 140 g/ha [2, 15]: 45 to 59%; pest or weed control at 70 g/ha [2, 16]: 95 to 100%; pest or weed control at 140 g/ha [2, 16]: 95 to 100%; pest or weed control at 70 g/ha [2, 17]: 75 to 84%; pest or weed control at 140 g/ha [2, 17]: 95 to 100%; melting point: 190 to 191 °C
Nc1c(F)c(-c2ccc(C(F)(F)F)nc2)nc(C(=O)O)c1Cl [Compound 46, 4-amino-5-chloro-3-fluoro-6′-(trifluoromethyl)-[2,3′-bipyridine]-6-carboxylic acid] | 95 to 100 | 95 to 100 | 95 to 100 | 95 to 100 | 95 to 100 | 95 to 100 | 75 to 84 | 95 to 100 | 95 to 100 | 95 to 100 | 85 to 94 | 85 to 94 | 75 to 84 | 85 to 94 | 85 to 94 | 85 to 94 | 85 to 94 | 95 to 100 | 95 to 100 | 95 to 100 | pest or weed control at 70 g/ha [2, 13]: 95 to 100%; pest or weed control at 140 g/ha [2, 13]: 95 to 100%; pest or weed control at 70 g/ha [2, 14]: 95 to 100%; pest or weed control at 140 g/ha [2, 14]: 95 to 100%; pest or weed control at 70 g/ha [2, 15]: 95 to 100%; pest or weed control at 140 g/ha [2, 15]: 95 to 100%; pest or weed control at 70 g/ha [2, 16]: 95 to 100%; pest or weed control at 140 g/ha [2, 16]: 95 to 100%; pest or weed control at 70 g/ha [2, 17]: 85 to 94%; pest or weed control at 140 g/ha [2, 17]: 95 to 100%; melting point: 164 °C
COC(=O)c1nc(-c2ccc(C(F)(F)F)nc2F)nc(N)c1Cl [Compound 47] | 0 to 29 | 0 to 29 | 0 to 29 | 0 to 29 | 0 to 29 | 0 to 29 | 0 to 29 | 0 to 29 | 0 to 29 | 0 to 29 | 0 to 29 | 0 to 29 | 0 to 29 | 0 to 29 | 0 to 29 | 0 to 29 | 0 to 29 | 0 to 29 | 0 to 29 | 0 to 29 | pest or weed control at 70 g/ha [2, 13]: 0 to 29%; pest or weed control at 140 g/ha [2, 13]: 0 to 29%; pest or weed control at 70 g/ha [2, 14]: 0 to 29%; pest or weed control at 140 g/ha [2, 14]: 45 to 59%; pest or weed control at 70 g/ha [2, 15]: 0 to 29%; pest or weed control at 140 g/ha [2, 15]: 0 to 29%; pest or weed control at 70 g/ha [2, 16]: 0 to 29%; pest or weed control at 140 g/ha [2, 16]: 0 to 29%; pest or weed control at 70 g/ha [2, 17]: 0 to 29%; pest or weed control at 140 g/ha [2, 17]: 0 to 29%; melting point: 150 to 153 °C
